Key:
Format in all cases: biochemical
off-target kinases = assay: KinaseProfiler off-target kinase profiling, full kinase panel (Example H); conditions: 10 μM, ATP near the Km
Experimental: Compound 1 was tested for off-target kinase activity at a concentration of 10 μM by Millipore, Inc. in their KinaseProfiler™ service against all the kinases available in their full kinase panel. Compound 1 was run in duplicate at a concentration of ATP near the Km for each individual kinase according to Millipore's specifications. Data are reported as percent of control (POC) and are the average of the two replicates.

CAMK2d = molecular target: T1, CAMK2d (Homo sapiens, UniProt Q13557); assay: KinaseProfiler kinase profiling; conditions: 10 μM, ATP near Km
T1 construct: purchased Millipore, Inc. (KinaseProfiler service)
In short: (§1)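 Percent of control (POC) read-out, averaged over two replicate wells. Compound concentration 10 μM; ATP set close to each enzyme's Km.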

PKCbetaII = molecular target: T2, PKCbetaII (Homo sapiens, UniProt P05771); assay: KinaseProfiler kinase profiling; conditions: 10 μM, ATP near Km
T2 construct: purchased Millipore, Inc. (KinaseProfiler service)
In short: as §1

Rsk3 = molecular target: T3, Rsk3 (Homo sapiens, UniProt Q15349); assay: KinaseProfiler kinase profiling; conditions: 10 μM, ATP near Km
T3 construct: purchased Millipore, Inc. (KinaseProfiler service)
In short: as §1

MKK4_m = molecular target: T4, MKK4_m (Mus musculus, UniProt P47809); assay: KinaseProfiler kinase profiling; conditions: 10 μM, ATP near Km
T4 construct: purchased Millipore, Inc. (KinaseProfiler service)
In short: as §1

Abl2 = molecular target: T5, Abl2 (Homo sapiens, UniProt P42684); assay: KinaseProfiler kinase profiling; conditions: 10 μM, ATP near Km
T5 construct: purchased Millipore, Inc. (KinaseProfiler service)
In short: as §1

ULK3 = molecular target: T6, ULK3 (Homo sapiens, UniProt Q6PHR2); assay: KinaseProfiler kinase profiling; conditions: 10 μM, ATP near Km
T6 construct: purchased Millipore, Inc. (KinaseProfiler service)
In short: as §1

p38gamma = molecular target: T7, p38gamma (Homo sapiens, UniProt P53778); assay: KinaseProfiler kinase profiling; conditions: 10 μM, ATP near Km
T7 construct: purchased Millipore, Inc. (KinaseProfiler service)
In short: as §1

CAMK4 = molecular target: T8, CAMK4 (Homo sapiens, UniProt Q16566); assay: KinaseProfiler kinase profiling; conditions: 10 μM, ATP near Km
T8 construct: purchased Millipore, Inc. (KinaseProfiler service)
In short: as §1

Pim-1 = molecular target: T9, Pim-1 (Homo sapiens, UniProt P11309); assay: KinaseProfiler kinase profiling; conditions: 10 μM, ATP near Km
T9 construct: purchased Millipore, Inc. (KinaseProfiler service)
In short: as §1

DRAK1 = molecular target: T10, DRAK1 (Homo sapiens, UniProt Q9UEE5); assay: KinaseProfiler kinase profiling; conditions: 10 μM, ATP near Km
T10 construct: purchased Millipore, Inc. (KinaseProfiler service)
In short: as §1

ARK5 = molecular target: T11, ARK5 (Homo sapiens, UniProt O60285); assay: KinaseProfiler kinase profiling; conditions: 10 μM, ATP near Km
T11 construct: purchased Millipore, Inc. (KinaseProfiler service)
In short: as §1

MSK1 = molecular target: T12, MSK1 (Homo sapiens, UniProt O75582); assay: KinaseProfiler kinase profiling; conditions: 10 μM, ATP near Km
T12 construct: purchased Millipore, Inc. (KinaseProfiler service)
In short: as §1

AKT2 = molecular target: T13, AKT2 (Homo sapiens, UniProt P31751); assay: KinaseProfiler kinase profiling; conditions: 10 μM, ATP near Km
T13 construct: purchased Millipore, Inc. (KinaseProfiler service)
In short: as §1

EphA4 = molecular target: T14, EphA4 (Homo sapiens, UniProt P54764); assay: KinaseProfiler kinase profiling; conditions: 10 μM, ATP near Km
T14 construct: purchased Millipore, Inc. (KinaseProfiler service)
In short: as §1

ERK1 = molecular target: T15, ERK1 (Homo sapiens, UniProt P27361); assay: KinaseProfiler kinase profiling; conditions: 10 μM, ATP near Km
T15 construct: purchased Millipore, Inc. (KinaseProfiler service)
In short: as §1

JAK2 = molecular target: T16, JAK2 (Homo sapiens, UniProt O60674); assay: KinaseProfiler kinase profiling; conditions: 10 μM, ATP near Km
T16 construct: purchased Millipore, Inc. (KinaseProfiler service)
In short: as §1

Pim-2 = molecular target: T17, Pim-2 (Homo sapiens, UniProt Q9P1W9); assay: KinaseProfiler kinase profiling; conditions: 10 μM, ATP near Km
T17 construct: purchased Millipore, Inc. (KinaseProfiler service)
In short: as §1

IRR = molecular target: T18, IRR (Homo sapiens, UniProt P14616); assay: KinaseProfiler kinase profiling; conditions: 10 μM, ATP near Km
T18 construct: purchased Millipore, Inc. (KinaseProfiler service)
In short: as §1

MARK1 = molecular target: T19, MARK1 (Homo sapiens, UniProt Q9P0L2); assay: KinaseProfiler kinase profiling; conditions: 10 μM, ATP near Km
T19 construct: purchased Millipore, Inc. (KinaseProfiler service)
In short: as §1

DAPK2 = molecular target: T20, DAPK2 (Homo sapiens, UniProt Q9UIK4); assay: KinaseProfiler kinase profiling; conditions: 10 μM, ATP near Km
T20 construct: purchased Millipore, Inc. (KinaseProfiler service)
In short: as §1

EphB1 = molecular target: T21, EphB1 (Homo sapiens, UniProt P54762); assay: KinaseProfiler kinase profiling; conditions: 10 μM, ATP near Km
T21 construct: purchased Millipore, Inc. (KinaseProfiler service)
In short: as §1

ZAP-70 = molecular target: T22, ZAP-70 (Homo sapiens, UniProt P43403); assay: KinaseProfiler kinase profiling; conditions: 10 μM, ATP near Km
T22 construct: purchased Millipore, Inc. (KinaseProfiler service)
In short: as §1

NEK7 = molecular target: T23, NEK7 (Homo sapiens, UniProt Q8TDX7); assay: KinaseProfiler kinase profiling; conditions: 10 μM, ATP near Km
T23 construct: purchased Millipore, Inc. (KinaseProfiler service)
In short: as §1

T2 sequence (P05771 1-673 isoform P05771-2): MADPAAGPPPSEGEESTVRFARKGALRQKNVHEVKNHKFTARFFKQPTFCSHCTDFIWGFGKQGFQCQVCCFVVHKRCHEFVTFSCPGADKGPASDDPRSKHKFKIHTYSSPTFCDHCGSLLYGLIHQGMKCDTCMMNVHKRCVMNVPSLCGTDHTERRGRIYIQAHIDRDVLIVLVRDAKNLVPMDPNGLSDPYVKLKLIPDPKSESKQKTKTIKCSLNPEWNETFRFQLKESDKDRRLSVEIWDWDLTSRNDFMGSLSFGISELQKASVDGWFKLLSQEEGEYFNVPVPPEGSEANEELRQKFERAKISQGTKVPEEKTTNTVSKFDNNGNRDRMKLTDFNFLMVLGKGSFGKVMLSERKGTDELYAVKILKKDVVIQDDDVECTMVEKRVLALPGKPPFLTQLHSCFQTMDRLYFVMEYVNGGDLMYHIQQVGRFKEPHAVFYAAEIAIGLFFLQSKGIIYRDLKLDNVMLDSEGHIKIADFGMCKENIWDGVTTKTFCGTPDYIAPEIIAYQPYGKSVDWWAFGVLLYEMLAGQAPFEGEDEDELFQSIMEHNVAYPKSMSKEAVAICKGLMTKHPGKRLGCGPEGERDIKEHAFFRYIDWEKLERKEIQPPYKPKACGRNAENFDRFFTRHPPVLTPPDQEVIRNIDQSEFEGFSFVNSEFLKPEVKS
T18 sequence (P14616 27-1297): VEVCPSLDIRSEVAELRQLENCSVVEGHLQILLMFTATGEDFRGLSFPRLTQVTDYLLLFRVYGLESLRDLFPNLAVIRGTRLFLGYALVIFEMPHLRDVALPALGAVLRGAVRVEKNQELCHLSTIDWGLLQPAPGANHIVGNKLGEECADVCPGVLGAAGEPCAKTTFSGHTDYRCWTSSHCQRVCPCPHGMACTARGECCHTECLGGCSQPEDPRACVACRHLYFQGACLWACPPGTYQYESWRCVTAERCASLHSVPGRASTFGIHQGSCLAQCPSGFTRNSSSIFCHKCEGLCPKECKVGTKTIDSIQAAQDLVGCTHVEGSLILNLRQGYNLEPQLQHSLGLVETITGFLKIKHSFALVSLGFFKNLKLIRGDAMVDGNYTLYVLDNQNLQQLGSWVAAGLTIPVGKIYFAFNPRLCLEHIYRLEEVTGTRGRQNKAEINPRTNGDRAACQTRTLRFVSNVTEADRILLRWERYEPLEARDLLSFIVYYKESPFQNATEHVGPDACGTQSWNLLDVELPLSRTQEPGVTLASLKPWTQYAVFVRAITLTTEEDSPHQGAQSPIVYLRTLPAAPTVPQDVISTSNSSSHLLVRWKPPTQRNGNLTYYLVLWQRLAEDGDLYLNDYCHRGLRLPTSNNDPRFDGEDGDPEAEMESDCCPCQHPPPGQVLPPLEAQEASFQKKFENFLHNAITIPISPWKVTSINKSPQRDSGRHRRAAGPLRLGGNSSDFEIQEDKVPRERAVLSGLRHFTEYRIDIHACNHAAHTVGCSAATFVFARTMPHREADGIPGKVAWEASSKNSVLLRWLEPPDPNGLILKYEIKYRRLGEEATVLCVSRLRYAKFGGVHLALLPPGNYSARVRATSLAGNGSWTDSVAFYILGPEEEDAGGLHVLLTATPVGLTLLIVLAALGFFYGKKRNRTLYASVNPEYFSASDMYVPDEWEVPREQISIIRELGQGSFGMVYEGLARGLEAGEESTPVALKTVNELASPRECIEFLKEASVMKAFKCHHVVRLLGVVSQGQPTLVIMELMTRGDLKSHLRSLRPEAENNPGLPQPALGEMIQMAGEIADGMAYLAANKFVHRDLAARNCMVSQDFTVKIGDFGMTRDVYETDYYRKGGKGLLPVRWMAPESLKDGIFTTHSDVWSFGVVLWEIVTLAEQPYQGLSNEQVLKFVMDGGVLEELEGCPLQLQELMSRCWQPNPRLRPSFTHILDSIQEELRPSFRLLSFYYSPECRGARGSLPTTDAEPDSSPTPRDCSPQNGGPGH
T5 sequence (P42684 whole entry): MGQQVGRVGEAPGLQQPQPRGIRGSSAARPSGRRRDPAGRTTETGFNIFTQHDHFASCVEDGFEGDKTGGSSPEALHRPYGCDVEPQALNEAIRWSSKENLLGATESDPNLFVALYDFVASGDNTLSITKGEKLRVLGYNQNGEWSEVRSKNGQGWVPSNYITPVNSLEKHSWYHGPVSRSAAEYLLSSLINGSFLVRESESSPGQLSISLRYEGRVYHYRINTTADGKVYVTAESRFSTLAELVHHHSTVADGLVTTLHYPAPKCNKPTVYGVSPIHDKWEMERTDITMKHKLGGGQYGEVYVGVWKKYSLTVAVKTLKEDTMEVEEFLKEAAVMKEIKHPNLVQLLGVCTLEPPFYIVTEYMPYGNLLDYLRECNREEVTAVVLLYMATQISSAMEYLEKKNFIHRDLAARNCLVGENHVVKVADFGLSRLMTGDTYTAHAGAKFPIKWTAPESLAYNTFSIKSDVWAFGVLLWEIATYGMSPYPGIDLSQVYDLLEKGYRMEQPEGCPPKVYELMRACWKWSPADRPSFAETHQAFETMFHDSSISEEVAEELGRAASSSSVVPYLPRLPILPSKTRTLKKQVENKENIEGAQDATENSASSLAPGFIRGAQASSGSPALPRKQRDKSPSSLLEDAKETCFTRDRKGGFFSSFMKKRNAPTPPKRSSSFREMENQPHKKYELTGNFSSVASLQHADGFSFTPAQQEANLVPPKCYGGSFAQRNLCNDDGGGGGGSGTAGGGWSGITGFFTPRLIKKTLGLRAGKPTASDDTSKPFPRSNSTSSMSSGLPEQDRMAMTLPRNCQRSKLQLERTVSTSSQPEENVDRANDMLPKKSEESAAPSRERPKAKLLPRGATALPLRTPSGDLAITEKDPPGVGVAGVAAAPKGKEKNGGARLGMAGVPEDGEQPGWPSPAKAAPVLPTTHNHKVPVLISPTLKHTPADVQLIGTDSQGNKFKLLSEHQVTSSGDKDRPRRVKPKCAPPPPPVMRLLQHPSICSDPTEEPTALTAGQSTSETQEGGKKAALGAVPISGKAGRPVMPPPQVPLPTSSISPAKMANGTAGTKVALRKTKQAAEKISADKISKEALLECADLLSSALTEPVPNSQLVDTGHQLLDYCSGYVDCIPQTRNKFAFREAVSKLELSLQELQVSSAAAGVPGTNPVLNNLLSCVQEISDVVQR
T20 sequence (Q9UIK4 whole entry): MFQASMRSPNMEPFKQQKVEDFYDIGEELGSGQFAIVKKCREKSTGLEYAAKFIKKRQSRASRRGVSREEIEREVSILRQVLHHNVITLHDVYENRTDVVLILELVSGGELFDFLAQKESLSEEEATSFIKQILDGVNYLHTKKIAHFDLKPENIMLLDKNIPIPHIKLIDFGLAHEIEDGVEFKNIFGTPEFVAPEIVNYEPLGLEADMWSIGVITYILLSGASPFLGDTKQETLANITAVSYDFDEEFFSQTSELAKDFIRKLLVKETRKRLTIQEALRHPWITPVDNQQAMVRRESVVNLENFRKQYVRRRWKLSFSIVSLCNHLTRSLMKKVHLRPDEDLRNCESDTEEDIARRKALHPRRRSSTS
T17 sequence (Q9P1W9 whole entry): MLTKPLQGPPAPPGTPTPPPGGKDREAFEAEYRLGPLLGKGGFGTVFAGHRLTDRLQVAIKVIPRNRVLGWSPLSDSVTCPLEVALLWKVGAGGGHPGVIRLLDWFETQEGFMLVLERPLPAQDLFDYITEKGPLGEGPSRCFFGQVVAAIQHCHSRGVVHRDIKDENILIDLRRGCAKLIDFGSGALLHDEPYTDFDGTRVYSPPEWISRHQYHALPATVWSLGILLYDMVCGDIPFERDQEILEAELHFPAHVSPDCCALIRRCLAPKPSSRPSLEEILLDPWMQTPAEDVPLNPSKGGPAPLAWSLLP
T10 sequence (Q9UEE5 whole entry): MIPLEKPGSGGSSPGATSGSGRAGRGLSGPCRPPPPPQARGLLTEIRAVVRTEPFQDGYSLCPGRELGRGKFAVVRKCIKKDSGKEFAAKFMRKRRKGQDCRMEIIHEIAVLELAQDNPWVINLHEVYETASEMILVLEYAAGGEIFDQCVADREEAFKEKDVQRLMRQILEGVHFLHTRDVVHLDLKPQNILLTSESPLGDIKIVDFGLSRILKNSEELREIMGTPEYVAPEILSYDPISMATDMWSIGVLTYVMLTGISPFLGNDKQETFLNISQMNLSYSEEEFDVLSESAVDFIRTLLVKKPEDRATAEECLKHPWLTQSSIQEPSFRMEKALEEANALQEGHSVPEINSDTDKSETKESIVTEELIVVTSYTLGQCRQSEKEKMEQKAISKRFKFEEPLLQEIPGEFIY
T13 sequence (P31751 whole entry): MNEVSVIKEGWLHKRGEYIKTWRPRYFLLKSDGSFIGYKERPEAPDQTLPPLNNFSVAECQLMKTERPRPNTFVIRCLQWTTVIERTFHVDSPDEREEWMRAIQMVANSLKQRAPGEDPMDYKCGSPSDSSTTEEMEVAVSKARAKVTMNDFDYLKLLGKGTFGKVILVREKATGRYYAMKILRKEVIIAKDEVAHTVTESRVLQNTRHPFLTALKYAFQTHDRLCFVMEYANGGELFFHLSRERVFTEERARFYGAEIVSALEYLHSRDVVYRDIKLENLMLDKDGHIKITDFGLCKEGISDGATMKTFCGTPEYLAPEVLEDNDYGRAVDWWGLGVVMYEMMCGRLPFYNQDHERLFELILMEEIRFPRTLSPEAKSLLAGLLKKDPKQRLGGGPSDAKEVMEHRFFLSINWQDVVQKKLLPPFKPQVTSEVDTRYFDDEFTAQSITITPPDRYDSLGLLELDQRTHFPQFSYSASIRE
T23 sequence (Q8TDX7 whole entry): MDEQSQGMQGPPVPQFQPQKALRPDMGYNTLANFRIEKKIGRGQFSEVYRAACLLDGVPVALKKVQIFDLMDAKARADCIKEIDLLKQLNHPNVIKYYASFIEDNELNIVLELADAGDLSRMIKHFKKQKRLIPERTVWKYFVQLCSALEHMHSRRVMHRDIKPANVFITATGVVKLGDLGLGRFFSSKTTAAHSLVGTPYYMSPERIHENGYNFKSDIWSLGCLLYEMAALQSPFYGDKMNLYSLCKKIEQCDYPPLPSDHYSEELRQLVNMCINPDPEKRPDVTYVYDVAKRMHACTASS

activity against off-target kinases (off-target kinases): largely inactive
Avg POC (CAMK2d): 97.5 POC
Avg POC (PKCbetaII): 99.5 POC
Avg POC (Rsk3): 107.5 POC
Avg POC (MKK4_m): 125 POC
Avg POC (Abl2): 110.5 POC
Avg POC (ULK3): 107.5 POC
Avg POC (p38gamma): 114.5 POC
Avg POC (CAMK4): 100 POC
Avg POC (Pim-1): 103.5 POC
Avg POC (DRAK1): 129.5 POC
Avg POC (ARK5): 104.5 POC
Avg POC (MSK1): 129 POC
Avg POC (AKT2): 104.5 POC
Avg POC (EphA4): 98 POC
Avg POC (ERK1): 94.5 POC
Avg POC (JAK2): 126 POC
Avg POC (Pim-2): 117.5 POC
Avg POC (IRR): 104.5 POC
Avg POC (MARK1): 100 POC
Avg POC (DAPK2): 97 POC
Avg POC (EphB1): 105.5 POC
Avg POC (ZAP-70): 104.5 POC
Avg POC (NEK7): 104 POC
Structure (SMILES): COCCN1C[C@@H](NC(=O)Nc2c(C)c(-c3cnc(C)nc3)nn2-c2ccccc2)[C@H](c2cccc(F)c2)C1 [Compound 1, 1-((3S,4R)-4-(3-fluorophenyl)-1-(2-methoxyethyl)pyrrolidin-3-yl)-3-(4-methyl-3-(2-methylpyrimidin-5-yl)-1-phenyl-1H-pyrazol-5-yl)urea]
